Measurements as given in patent publication US20240065971A1, “METHODS OF TREATING ABC-DLBCL USING INHIBITORS OF BRUTONS TYROSINE KINASE” (Pharmacyclics LLC, priority 2010, published 2024).

Assays:
OCI-Ly10 cells [1] = assay: Dose response of p-ERK by Western blotting; assay type: cell-based
OCI-Ly10 cells [2] = conditions: 10 nM, up to 4 hours
OCI-Ly3 cells [3] = assay: IgM/IgG stimulated calcium flux (Fura-2AM); assay type: cell-based; conditions: OCI-Ly3, inhibitor added 5 min before stimulation
Source text: (§1) The kinetics of calcium flux were quantitated by optical spectroscopy following standard procedures.

OCI-Ly10 cells [4] = assay: IgM/IgG stimulated calcium flux (Fura-2AM); assay type: cell-based; conditions: OCI-Ly10, inhibitor added 5 min before stimulation
Source text: as §1

OCI-Ly10 cells [5] = assay: RT-PCR (Taqman) of NF-kB target genes; assay type: cell-based; conditions: 100 nM, 4 hrs
OCI-Ly10 cells [6] = assay: Constitutive IL-10 secretion by ELISA; assay type: cell-based
[7] = tested on: OCI-Ly10 tumor xenografts; assay: OCI-Ly10 tumor xenografts in female SCID mice; assay type: in vivo; conditions: once a day 3 mg/kg or 12 mg/kg, vs vehicle
Source text: Female SCID mice were implanted with 10 million […] cells in Matrigel and tumors were allowed to reach 100 mm^3.

OCI-Ly3 cells [8] = conditions: 10 nM, up to 4 hours

SMILES: CC[C@H](Nc1ncnc2[nH]cnc12)c1nc2cccc(F)c2c(=O)n1-c1ccccc1 [CAL-101, reference compound]
- concentration that decreases p-ERK (OCI-Ly10 cells [1]): 100 nM

SMILES: C=CC(=O)N1CCC[C@@H](n2nc(-c3ccc(Oc4ccccc4)cc3)c3c(N)ncnc32)C1 [Btk inhibitor]
- Phosphorylation of AKT (OCI-Ly10 cells [2]): rapidly abolished
- Phosphorylation of ERK (OCI-Ly10 cells [2]): rapidly abolished
- concentration that decreases p-ERK (OCI-Ly10 cells [1]): 1 nM
- calcium flux after stimulation (OCI-Ly3 cells [3]): dose-dependent reduction
- calcium flux after stimulation (OCI-Ly10 cells [4]): dose-dependent reduction
- Myc expression (OCI-Ly10 cells [5]): maximally downregulated
- Constitutive IL-10 secretion (OCI-Ly10 cells [6]): inhibited
- tumor growth [7]: dose-dependent inhibition
- Phosphorylation of AKT (OCI-Ly3 cells [8]): inhibited
